US8003660B2, “Modulators of muscarinic receptors” (Vertex Pharmaceuticals Incorporated, priority 2006, dated 2011)

How the values were obtained:
Type in all cases: cell-based
[1] = molecular target: T1, M1 muscarinic receptor (Homo sapiens, UniProt P11229); experiment: Functional mobilization of intracellular calcium (FLIPR) in CHO cells expressing M1; details: for M1 Activity: CHO cells expressing M1, FLIPR calcium assay; for Emax: CHO, 100% efficacy = maximum response obtained with the Carbachol control
T1 construct: expressed in transfected cells; host or cells: CHO (M1-CHO)
T1 sequence (P11229 1-460): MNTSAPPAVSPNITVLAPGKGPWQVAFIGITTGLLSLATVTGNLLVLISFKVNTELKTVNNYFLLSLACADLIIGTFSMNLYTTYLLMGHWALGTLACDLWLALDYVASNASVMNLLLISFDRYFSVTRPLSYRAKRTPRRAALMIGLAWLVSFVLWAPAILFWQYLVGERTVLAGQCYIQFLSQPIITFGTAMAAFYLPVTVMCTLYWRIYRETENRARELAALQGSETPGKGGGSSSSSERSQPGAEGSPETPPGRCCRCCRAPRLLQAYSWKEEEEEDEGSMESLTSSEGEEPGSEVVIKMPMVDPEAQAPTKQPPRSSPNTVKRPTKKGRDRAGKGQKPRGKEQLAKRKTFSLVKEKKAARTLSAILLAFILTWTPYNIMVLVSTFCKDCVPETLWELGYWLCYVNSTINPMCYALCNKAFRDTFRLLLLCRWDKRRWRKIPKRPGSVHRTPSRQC
In short: (§1)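 Recombinant CHO cells loaded with Fluo-3 AM or Calcium 3 dye in pH 7.4 buffer containing 1 mM probenecid, with 0.5% final DMSO. For agonism, compound is added directly. For inhibition, it is preincubated 15 min, or co-applied, before carbachol at EC80. FLIPR fluorescence (ex 488, em 540 nm) is recorded for 60 s.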

[2] = molecular target: T2, M2 muscarinic receptor (Homo sapiens, UniProt P08172); experiment: Functional mobilization of intracellular calcium (FLIPR) in CHO cells expressing M2; details: for M2 Activity: CHO cells expressing M2, FLIPR calcium assay; for Emax: CHO, 100% efficacy = maximum response obtained with the Carbachol control
T2 construct: expressed in transfected cells; host or cells: CHO (M2-CHO)
T2 sequence (P08172 1-466): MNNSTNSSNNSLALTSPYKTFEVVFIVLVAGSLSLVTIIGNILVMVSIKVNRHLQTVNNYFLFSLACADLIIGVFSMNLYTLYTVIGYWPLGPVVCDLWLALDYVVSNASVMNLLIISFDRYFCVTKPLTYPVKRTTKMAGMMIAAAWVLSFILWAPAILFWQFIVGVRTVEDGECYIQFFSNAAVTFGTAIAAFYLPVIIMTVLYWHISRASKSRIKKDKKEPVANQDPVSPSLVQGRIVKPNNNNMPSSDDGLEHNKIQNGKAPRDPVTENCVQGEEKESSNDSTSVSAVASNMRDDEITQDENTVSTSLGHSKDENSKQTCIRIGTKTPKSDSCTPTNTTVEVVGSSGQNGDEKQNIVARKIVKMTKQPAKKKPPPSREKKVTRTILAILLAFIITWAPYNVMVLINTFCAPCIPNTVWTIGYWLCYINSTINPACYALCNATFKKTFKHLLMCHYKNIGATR
In short: as §1

[3] = molecular target: T3, M3 muscarinic receptor (Homo sapiens, UniProt P20309); experiment: Functional mobilization of intracellular calcium (FLIPR) in CHO cells expressing M3; details: for M3 Activity: CHO cells expressing M3, FLIPR calcium assay; for Emax: CHO, 100% efficacy = maximum response obtained with the Carbachol control
T3 construct: expressed in transfected cells; host or cells: CHO (M3-CHO)
T3 sequence (P20309 whole entry): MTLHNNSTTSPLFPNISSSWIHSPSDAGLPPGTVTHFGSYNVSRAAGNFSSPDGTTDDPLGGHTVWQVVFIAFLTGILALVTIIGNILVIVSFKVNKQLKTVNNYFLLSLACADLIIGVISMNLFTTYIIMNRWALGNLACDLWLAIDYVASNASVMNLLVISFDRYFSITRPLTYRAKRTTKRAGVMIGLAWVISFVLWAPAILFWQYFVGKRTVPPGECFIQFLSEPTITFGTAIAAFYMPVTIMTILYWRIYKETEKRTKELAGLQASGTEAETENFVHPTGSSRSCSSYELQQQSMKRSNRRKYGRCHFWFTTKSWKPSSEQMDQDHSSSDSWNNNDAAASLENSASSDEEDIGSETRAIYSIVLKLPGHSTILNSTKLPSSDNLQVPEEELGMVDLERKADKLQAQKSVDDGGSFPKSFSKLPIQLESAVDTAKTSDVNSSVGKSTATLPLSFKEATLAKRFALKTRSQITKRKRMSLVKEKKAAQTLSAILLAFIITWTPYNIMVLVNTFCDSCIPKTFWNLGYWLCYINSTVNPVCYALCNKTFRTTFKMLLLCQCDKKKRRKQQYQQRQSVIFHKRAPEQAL
In short: as §1

[4] = molecular target: T4, M4 muscarinic receptor (Homo sapiens, UniProt P08173); experiment: Functional mobilization of intracellular calcium (FLIPR) in CHO cells expressing M4; details: for M4 Activity: CHO cells expressing M4, FLIPR calcium assay; for Emax: CHO, 100% efficacy = maximum response obtained with the Carbachol control
T4 construct: expressed in transfected cells; host or cells: CHO (M4-CHO)
T4 sequence (P08173 1-479): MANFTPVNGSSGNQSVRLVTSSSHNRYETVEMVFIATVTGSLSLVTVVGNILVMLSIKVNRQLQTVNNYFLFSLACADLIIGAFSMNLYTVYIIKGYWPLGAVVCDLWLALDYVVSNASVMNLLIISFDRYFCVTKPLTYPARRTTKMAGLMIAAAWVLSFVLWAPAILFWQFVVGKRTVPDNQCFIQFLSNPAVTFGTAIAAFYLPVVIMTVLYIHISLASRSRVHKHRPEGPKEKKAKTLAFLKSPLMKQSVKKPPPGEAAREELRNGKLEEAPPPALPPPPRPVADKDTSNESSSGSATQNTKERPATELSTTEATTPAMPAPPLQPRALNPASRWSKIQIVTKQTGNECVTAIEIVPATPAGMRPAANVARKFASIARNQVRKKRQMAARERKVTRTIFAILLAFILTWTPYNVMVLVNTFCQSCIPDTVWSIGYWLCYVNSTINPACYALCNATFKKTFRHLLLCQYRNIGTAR
In short: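 Calcium flux is read on FLIPR over 60 sec at 488/540 nm in muscarinic-receptor CHO lines. Antagonist mode adds carbachol at EC80 after 15 min compound preincubation or with simultaneous co-application. Agonist mode adds compound alone. Cells carry Fluo-3 or Calcium 3 dye in probenecid-containing pH 7.4 buffer, 0.5% DMSO final.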

Compound | M1 Activity [1] | Emax [1] [%] | M2 Activity [2] | Emax [2] [%] | M3 Activity [3] | Emax [3] [%] | M4 Activity [4] | Emax [4] [%]
CC(C)CCN1CCC2(CC1)C[C@H](NC(=O)N(C)C)c1ccccc12 [compound 293] | + (activity was measured to be greater than 5.0 μM) | < 25 | + (activity was measured to be greater than 5.0 μM) | < 25 | + (activity was measured to be greater than 5.0 μM) | < 25 | + (activity was measured to be greater than 5.0 μM) | < 25
CC(C)CCN1CCC2(CC1)C[C@H](NC(=O)N1CCCC1)c1ccccc12 [compound 294] | + (activity was measured to be greater than 5.0 μM) | < 25 | + (activity was measured to be greater than 5.0 μM) | < 25 | + (activity was measured to be greater than 5.0 μM) | < 25 | + (activity was measured to be greater than 5.0 μM) | < 25
CC(C)(C)OC(=O)N1CCC2(CC1)C[C@H](NC(=O)C1CCCC1)c1ccccc12 [compound 295] | + (activity was measured to be greater than 5.0 μM) | < 25 | + (activity was measured to be greater than 5.0 μM) | < 25 | + (activity was measured to be greater than 5.0 μM) | < 25 | + (activity was measured to be greater than 5.0 μM) | < 25
CN(C)C(=O)N[C@H]1CC2(CCN(CCC(C)(C)C)CC2)c2ccccc21 [compound 297] | + (activity was measured to be greater than 5.0 μM) | < 25 | + (activity was measured to be greater than 5.0 μM) | < 25 | + (activity was measured to be greater than 5.0 μM) | < 25 | + (activity was measured to be greater than 5.0 μM) | < 25
CN(C)C(=O)N[C@H]1CC2(CCN(C(=O)OC(C)(C)C)CC2)c2ccccc21 [compound 298] | + (activity was measured to be greater than 5.0 μM) | < 25 | + (activity was measured to be greater than 5.0 μM) | < 25 | + (activity was measured to be greater than 5.0 μM) | < 25 | + (activity was measured to be greater than 5.0 μM) | < 25
CC(C)CCN1CCC2(CC1)C[C@H](NC(=O)C1CCCC1)c1ccccc12 [compound 299] | + (activity was measured to be greater than 5.0 μM) | < 25 | + (activity was measured to be greater than 5.0 μM) | < 25 | + (activity was measured to be greater than 5.0 μM) | < 25 | + (activity was measured to be greater than 5.0 μM) | < 25
CC(C)(C)CCN1CCC2(CC1)C[C@H](NC(=O)C1CC1)c1ccccc12 [compound 300] | +++ (activity was measured to be less than 2.0 μM) | 25 to 100 | + (activity was measured to be greater than 5.0 μM) | < 25 | + (activity was measured to be greater than 5.0 μM) | < 25 | +++ (activity was measured to be less than 2.0 μM) | < 25
C=CCCCN1CCC2(CC1)C[C@H](NC(=O)N1CCCC1)c1ccccc12 [compound 301] | + (activity was measured to be greater than 5.0 μM) | < 25 | + (activity was measured to be greater than 5.0 μM) | < 25 | + (activity was measured to be greater than 5.0 μM) | < 25 | + (activity was measured to be greater than 5.0 μM) | < 25
